We go through one compound from patent US6875847B1, “Linoleate and linolenate-lipoxygenase mutants” (Institut fur Pflanzenbiochemie IPE, priority 1999, dated 2005).

The assay has as its target T1, Cucumis sativus (cucumber) lipid body lipoxygenase (cslbLOX, 13-LOX), wild type, X92890, FIG. 5 (Cucumis sativus, UniProt Q42710).
T1 sequence (Q42710 1-878): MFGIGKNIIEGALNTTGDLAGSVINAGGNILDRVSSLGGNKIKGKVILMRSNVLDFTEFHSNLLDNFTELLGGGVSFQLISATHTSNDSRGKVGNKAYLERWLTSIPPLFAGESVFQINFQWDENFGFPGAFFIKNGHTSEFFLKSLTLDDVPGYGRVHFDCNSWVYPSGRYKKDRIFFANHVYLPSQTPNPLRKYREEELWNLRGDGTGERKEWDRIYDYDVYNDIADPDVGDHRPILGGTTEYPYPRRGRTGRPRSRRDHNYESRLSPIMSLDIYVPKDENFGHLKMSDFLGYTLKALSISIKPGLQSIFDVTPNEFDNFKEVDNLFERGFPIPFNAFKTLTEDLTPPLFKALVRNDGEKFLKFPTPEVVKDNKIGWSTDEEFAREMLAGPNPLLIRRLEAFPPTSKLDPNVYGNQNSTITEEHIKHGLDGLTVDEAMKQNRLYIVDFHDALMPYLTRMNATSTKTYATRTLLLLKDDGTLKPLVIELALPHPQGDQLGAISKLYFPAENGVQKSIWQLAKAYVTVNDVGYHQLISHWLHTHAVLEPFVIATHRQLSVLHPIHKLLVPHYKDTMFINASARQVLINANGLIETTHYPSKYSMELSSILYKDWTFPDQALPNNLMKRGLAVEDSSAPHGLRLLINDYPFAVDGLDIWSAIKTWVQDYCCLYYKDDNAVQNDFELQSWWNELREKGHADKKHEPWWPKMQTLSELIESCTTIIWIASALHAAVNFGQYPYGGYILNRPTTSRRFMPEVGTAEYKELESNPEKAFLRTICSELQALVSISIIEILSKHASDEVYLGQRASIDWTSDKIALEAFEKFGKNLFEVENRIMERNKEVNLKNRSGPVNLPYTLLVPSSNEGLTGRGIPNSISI
Kind of assay: Kinetic characterization of wild-type LOX (13-LOX) with LA. Type of assay: biochemical. The note with it: 23 points measured between 100 μM and 250 μM LA. Here is the method:
For the bacterial expression of wild-type LOX and for directed mutagenesis the plasmid pQE-30 (Qiagen, Hilden, Germany), which contained the cDNA of the LOX from lipid bodies of cucumber cotyledons as an insert (LOXpQE 30: cf. Feussner, I., Bachmann, A., Höhne, M. & Kindl, H. (1998) FEBS Lett. 431, 433-436) was used. The mutagenesis was carried out with the aid of the QuikChange Mutagenesis Kit from Stratagene (Heidelberg, Germany). Oligonucleotides with the appropriate base exchanges were obtained from MWG-Biotech (Ebersberg, Germany). For the analysis of the mutations further conservative base exchange was initiated in order to create new restriction division sites or to delete existing ones. In addition all the mutations were sequenced and at least three different bacterial clones expressed and used for the investigation of enzymatic properties. The expression of LOXpQE-30 and all the mutations was carried out according to Feussner, I., Bachmann, A., Höhne, M. & Kindl, H. (1998) FEBS Left. 431, 433-436. Cells from 1-liter cultures were resuspended in 5 to 7 ml lysis buffer and with the aid of an ultrasound needle broken up with pulses each of 30 seconds, and the cell debris made into pellets. The affinity purification of the polyHis-extended LOX was carried out as previously described (cf. Feussner, I., Bachmann, A., Höhne, M. & Kindl, H. (1998) FEBS Lett. 431, 433436).

As usually defined, the Km is the substrate concentration at which the rate is half of its maximum. As for `CCCCC/C=C\C/C=C\CCCCCCCC(=O)O` [LA, linoleic acid], the Km was 115 µM and the “LA turnover at Vmax condition (substrate saturation)” value came to 12 s⁻¹.
